Assays:
[1] = molecular target: T1, Acetylcholinesterase (Homo sapiens, UniProt P22303)
Description: Compound was tested in vitro for inhibitory activity against Acetylcholinesterase

[2] = molecular target: Butyrylcholinesterase (Rattus norvegicus, UniProt Q9JKC1)
Description: Compound was tested in vitro for inhibitory activity against Butyrylcholinesterase

[3] = molecular target: T1, Acetylcholinesterase; assay: In vitro selectivity towards Acetylcholinesterase relative to compound 1
[4] = molecular target: T2, Acetylcholinesterase (Rattus norvegicus, UniProt P37136)
T2 sequence (P37136 whole entry): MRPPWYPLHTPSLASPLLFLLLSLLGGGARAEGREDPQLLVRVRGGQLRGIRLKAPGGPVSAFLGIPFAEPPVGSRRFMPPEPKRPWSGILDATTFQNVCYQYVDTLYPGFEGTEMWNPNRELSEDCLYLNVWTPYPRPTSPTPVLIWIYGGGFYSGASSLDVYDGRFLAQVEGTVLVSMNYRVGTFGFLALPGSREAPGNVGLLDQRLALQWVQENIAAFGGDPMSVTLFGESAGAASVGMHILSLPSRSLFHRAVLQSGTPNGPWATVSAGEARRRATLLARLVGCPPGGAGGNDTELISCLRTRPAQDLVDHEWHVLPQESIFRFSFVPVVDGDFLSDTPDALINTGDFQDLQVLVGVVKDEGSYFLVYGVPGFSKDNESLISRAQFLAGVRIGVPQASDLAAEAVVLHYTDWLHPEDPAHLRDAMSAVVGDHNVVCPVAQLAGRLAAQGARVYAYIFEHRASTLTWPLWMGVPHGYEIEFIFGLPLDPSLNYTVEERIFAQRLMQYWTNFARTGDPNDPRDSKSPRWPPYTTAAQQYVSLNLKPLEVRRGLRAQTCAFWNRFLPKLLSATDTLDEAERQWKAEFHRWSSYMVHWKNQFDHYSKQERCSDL
Description: Compound was tested in vitro for inhibitory activity against Acetylcholinesterase in rat cortex

T1 sequence (P22303 whole entry): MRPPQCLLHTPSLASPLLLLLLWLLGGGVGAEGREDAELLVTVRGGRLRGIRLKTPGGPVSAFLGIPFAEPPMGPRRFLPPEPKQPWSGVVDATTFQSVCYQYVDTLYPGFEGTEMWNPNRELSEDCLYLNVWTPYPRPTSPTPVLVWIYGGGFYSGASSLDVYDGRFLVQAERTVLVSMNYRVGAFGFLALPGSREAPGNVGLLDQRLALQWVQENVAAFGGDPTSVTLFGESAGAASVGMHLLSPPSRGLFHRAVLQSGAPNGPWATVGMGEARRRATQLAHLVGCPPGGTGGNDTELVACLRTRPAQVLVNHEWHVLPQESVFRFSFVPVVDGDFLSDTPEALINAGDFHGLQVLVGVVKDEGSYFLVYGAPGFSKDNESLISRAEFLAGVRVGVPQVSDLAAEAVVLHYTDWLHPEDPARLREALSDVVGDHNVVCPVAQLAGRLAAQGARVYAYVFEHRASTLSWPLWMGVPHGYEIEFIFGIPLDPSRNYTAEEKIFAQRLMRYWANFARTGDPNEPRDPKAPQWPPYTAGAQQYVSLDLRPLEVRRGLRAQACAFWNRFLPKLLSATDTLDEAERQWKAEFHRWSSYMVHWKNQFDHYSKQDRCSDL
Sequence of Butyrylcholinesterase (Q9JKC1 whole entry): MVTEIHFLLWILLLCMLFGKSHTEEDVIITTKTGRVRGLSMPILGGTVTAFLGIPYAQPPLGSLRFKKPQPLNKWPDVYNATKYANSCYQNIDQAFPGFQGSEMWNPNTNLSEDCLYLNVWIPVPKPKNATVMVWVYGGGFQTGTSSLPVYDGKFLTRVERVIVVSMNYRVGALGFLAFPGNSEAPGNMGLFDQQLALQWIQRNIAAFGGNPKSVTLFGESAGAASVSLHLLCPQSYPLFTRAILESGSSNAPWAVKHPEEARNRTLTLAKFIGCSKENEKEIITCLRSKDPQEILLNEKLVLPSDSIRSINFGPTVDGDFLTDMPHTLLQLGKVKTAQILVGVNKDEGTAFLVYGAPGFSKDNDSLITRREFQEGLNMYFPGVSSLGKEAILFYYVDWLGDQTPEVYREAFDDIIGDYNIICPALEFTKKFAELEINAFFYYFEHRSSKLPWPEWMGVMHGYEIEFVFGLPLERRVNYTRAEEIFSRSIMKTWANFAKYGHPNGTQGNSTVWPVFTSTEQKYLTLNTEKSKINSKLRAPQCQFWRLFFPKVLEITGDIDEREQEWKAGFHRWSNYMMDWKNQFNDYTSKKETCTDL

SMILES | IC50 [1] [µM] | IC50 [2] [µM] | Relative Selectivity [3] | IC50 [4] [µM]
Nc1c2c(nc3ccccc13)-c1ccccc1CS2 | 18.6 | 4.9 | 1.22 | > 100
Nc1c2c(nc3ccccc13)-c1ccccc1C2 | 0.676 | 4.67 | 32.1 | 0.48
Nc1c2c(nc3ccccc13)-c1ccccc1CC2 | 2.98 | 1.18 | 1.83 | 4
Nc1cc(-c2ccccc2)nc2ccccc12 | 11.5 | 12 | 4.86 | > 100
Nc1c2c(nc3ccccc13)-c1ccccc1CO2 | 245 | 6.58 | 0.13 | > 100
